From US20200079765A1, “SUBSTITUTED HETEROARYL PYRROLONES AND SALTS THEREOF AND USE THEREOF AS HERBICIDAL ACTIVE SUBSTANCES” (Bayer CropScience Aktiengesellschaft, priority 2016, published 2020)

How the values were obtained:
photosystem II (PS II) = target: T1, photosystem II (PS II) (Spinacia oleracea, UniProt P69560); experiment: Measurement of the PS II activity in thylakoid membranes (DCPIP reduction, Experimental Part 3, Table E1); format: biochemical; conditions: spinach thylakoid membranes
T1 construct: the chloroplasts were osmotically ruptured and the thylakoid membranes were then obtained by centrifugation; from tissue; host or cells: thylakoid membranes from fresh spinach leaves
Description: Cooled fresh spinach leaves were comminuted and homogenized in 50 mM phosphate buffer, pH 6.8. 10 mM KCl, 0.34 M sucrose (sucrose buffer) (blender, 1 g of plant material/ml). The homogenate was subsequently filtered through 4 layers of Miracloth and the chloroplasts were isolated by centrifugation, i.e. 10 min of centrifugation at 4400×g (4° C.). The sediment was suspended in 25 ml of sucrose buffer and re-centrifuged for 10 min at 4400×g (4° C.). The sediment was then suspended in 40 ml of 50 mM phosphate buffer, pH 6.8, 10 mM KCl, without sucrose. In this step, the chloroplasts were osmotically ruptured and the thylakoid membranes were then obtained by centrifugation (10 min, 4400×g, 4° C.). The membrane sediment was finally suspended in about 20 ml of 50 mM phosphate buffer, pH 6.8, 10 mM KCl. Following protein determination and activity determination, the membrane suspension was divided into aliquots and frozen in liquid nitrogen. The aliquots were stored at −80° C. Under these conditions, the photosystem II preparation was storage stable for at least three months. The activity determination of photosystem II (PS II) was then carried out using the following test principle: The electron transfer from PS II to an artificial electron acceptor, 2,6-dichlorophenolindophenol (DCPIP), was measured with exposure to light. The concentration of the blue oxidized form of DCPIP was determined spectrophotometrically at wavelength λ=595 nm. […] The activity determination was carried out in microtiter plates (96 cavities) in a reaction volume of 200 μl. Here, 155 μl of dilute membrane suspension were initially charged in 50 mM of phosphate buffer, pH 6.8, 10 mM KCl. Depending on the activity of the PS II preparation, the dilution was adjusted such that the measurement of the decrease in absorption (λ=595 nm) was linear for at least 10 min. In each case 5 μl solution of the test compounds of a concentration of 100 μM in DMSO were added to the enzyme suspension; controls contained 5 μl DMSO; the final concentration of DMSO in the reaction batch was thus 2.5% (v/v); this concentration had no adverse effect on the enzymatic activity. On each microtiter plate, a known PS II inhibitor, for example metribuzin, was used as standard, which allowed the quality of the PS II test to be assessed. The reaction was started by addition of 40 μl DCPIP solution (600 μM in distilled water); the final concentration of DCPIP was 120 μM. Measurement of absorption was carried out over a period of 10 min at 22° C. and with exposure to light. Using metribuzin as comparative substance, the results for the efficacy of the compounds of the general formula (I) at 100 μM are stated in the table below using the following classification: ++++ (inhibition≥90%), +++ (90%>inhibition≥70%), ++ (70%>inhibition≥50%), + (50%>inhibition≥30%).
Effects of selected compounds of the general formula (I) according to the following table E1: […]

Setaria viridis [1] = experiment: Herbicidal post-emergence action (Experimental Part 2, C); format: in vivo; conditions: post-emergence (Part 2), application rate 1280 g/ha, rated visually after about 3 weeks
Description: (§1) Seeds of mono- and dicotyledonous weed plants were placed in plastic pots in sandy loam soil (doubly sown with in each case one species of mono- or dicotyledonous weed plants per pot), covered with soil and cultivated in a greenhouse under controlled growth conditions. 2 to 3 weeks after sowing, the test plants were treated at the one-leaf stage. The compounds of the invention, formulated in the form of wettable powders (WP) or as emulsion concentrates (EC), were applied onto the green parts of the plants as aqueous suspension or emulsion with addition of 0.5% additive at a water application rate of 600 liters per hectare (converted). After the test plants had been kept in the greenhouse under optimum growth conditions for about 3 weeks, the activity of the preparations was rated visually in comparison to untreated controls. For example, 100% activity=the plants have died, 0% activity=like control plants. Tables C1 to C8 below show the effects of selected compounds of the general formula (I) according to Tables I.1 to I.116 on various harmful plants and an application rate corresponding to 1280 g/ha or 320 g/ha, which were obtained by the experimental procedure mentioned above.

Amaranthus retroflexus [2] = experiment: as above; format: in vivo; conditions: post-emergence (Part 2), rated visually after about 3 weeks
Description: as §1

Abutilon theophrasti [3] = experiment: as above; format: in vivo; conditions: post-emergence (Part 2), rated visually after about 3 weeks
Description: as §1

Stellaria media [4] = experiment: as above; format: in vivo; conditions: post-emergence (Part 2), rated visually after about 3 weeks
Description: as §1

Setaria viridis [5] = experiment: Herbicidal pre-emergence action (Experimental Part 2, D); format: in vivo; conditions: pre-emergence (Part 2), scored visually after about 3 weeks
Source text: (§2) Seeds of mono- and dicotyledonous weed plants were placed in plastic pots in sandy loam soil (doubly sown with in each case one species of mono- or dicotyledonous weed plants per pot) and covered with soil. The compounds of the invention, formulated in the form of wettable powders (WP) or as emulsion concentrates (EC), were then applied onto the surface of the covering soil as aqueous suspension or emulsion with addition of 0.5% additive at a water application rate of 600 liters per hectare (converted). After the treatment, the pots are placed in a greenhouse and kept under good growth conditions for the trial plants. After about 3 weeks, the effect of the preparations was scored visually in comparison with untreated controls as percentages. For example, 100% activity=the plants have died, 0% activity=like control plants. Tables D1 to D8 below show the effects of selected compounds of the general formula (I) according to Tables I.1 to I.116 on various harmful plants and an application rate corresponding to 1280 g/ha or 320 g/ha, which were obtained by the experimental procedure mentioned above.

Amaranthus retroflexus [6] = experiment: as above; format: in vivo; conditions: pre-emergence (Part 2), scored visually after about 3 weeks
Source text: as §2

Abutilon theophrasti [7] = experiment: as above; format: in vivo; conditions: pre-emergence (Part 2), scored visually after about 3 weeks
Source text: as §2

Stellaria media [8] = experiment: as above; format: in vivo; conditions: pre-emergence (Part 2), scored visually after about 3 weeks
Source text: as §2

Poa annua [9] = experiment: as above; format: in vivo; conditions: pre-emergence (Part 2), scored visually after about 3 weeks
Source text: as §2

Matricaria inodora [10] = experiment: as above; format: in vivo; conditions: pre-emergence (Part 2), scored visually after about 3 weeks
Source text: as §2

Amaranthus retroflexus [11] = experiment: Pre-emergence herbicidal action (Experimental Part 1, B); format: in vivo; conditions: application rate 1280 g/ha, scored visually after about 3 weeks
Source text: Seeds of monocotyledonous and dicotyledonous weed plants and crop plants were placed in plastic or organic planting pots and covered with soil. The compounds of the invention, formulated in the form of wettable powders (WP) or as emulsion concentrates (EC), were then applied onto the surface of the covering soil as aqueous suspension or emulsion with addition of 0.5% additive at a water application rate of 600 l/ha (converted). After the treatment, the pots were placed in a greenhouse and kept under good growth conditions for the test plants. After about 3 weeks, the effect of the preparations was scored visually in comparison with untreated controls as percentages. For example, 100% activity=the plants have died, 0% activity=like control plants. Tables B1 to B14 below show the effects of selected compounds of the general formula (I) according to Tables I.1 to I.116 on various harmful plants and an application rate corresponding to 1280 g/ha or 320 g/ha, which were obtained by the experimental procedure mentioned above.

Poa annua [12] = experiment: Herbicidal post-emergence action (Experimental Part 2, C); format: in vivo; conditions: post-emergence (Part 2), rated visually after about 3 weeks
Description: as §1

Matricaria inodora [13] = experiment: as above; format: in vivo; conditions: post-emergence (Part 2), rated visually after about 3 weeks
Description: as §1

Lolium rigidum = experiment: Herbicidal pre-emergence action (Experimental Part 2, D); format: in vivo; conditions: pre-emergence (Part 2), application rate 1280 g/ha, scored visually after about 3 weeks
Source text: as §2

`CC1=CC(=O)N(c2cc(CC(C)C)no2)C1O` (centres unmarked) [I.1-697] was tested. Which “Effect (inhibition of PS II activity)” value (photosystem II (PS II)) did it give?
The value was “++++ (inhibition≥90%)”.

`CC1=CC(O)N(c2cc(C)ns2)C1=O` (centres unmarked) [I.2-72] was tested. Which “Effect (inhibition of PS II activity)” value (photosystem II (PS II)) did it give?
The value was “++ (70%>inhibition≥50%)”.

With `CC1=CC(O)N(c2cc(-c3ccccc3)ns2)C1=O` (centres unmarked) [I.2-86] as the compound, how does the “Effect (inhibition of PS II activity)” value (photosystem II (PS II)) read?
Its value is “++++ (inhibition≥90%)”.

`CC1=CC(O)N(c2onc(C(C)(C)C)c2C)C1=O` (centres unmarked) [I.2-300] was tested. Which “Effect (inhibition of PS II activity)” value (photosystem II (PS II)) did it give?
Its value is “++++ (inhibition≥90%)”.

And the “Setaria viridis, herbicidal activity” value (Setaria viridis [1])?
Its value is 90%.

What about the “Amaranthus retroflexus, herbicidal activity” value (“Amaranthus retroflexus” for short) (Amaranthus retroflexus [2]; application rate 320 g/ha) of the same compound?
Its value is 100%.

And the “Abutilon theophrasti, herbicidal activity” value (shortened to “Abutilon theophrasti”) (Abutilon theophrasti [3]; application rate 1280 g/ha)?
The value was 100%.

And the “Stellaria media, herbicidal activity” value (Stellaria media [4]; application rate 1280 g/ha)?
Its value is 100%.

And the “Setaria viridis, herbicidal activity” value (Setaria viridis [5]; application rate 320 g/ha)?
The value was 90%.

And the “Amaranthus retroflexus” value (Amaranthus retroflexus [6]; application rate 320 g/ha)?
Its value is 100%.

And the “Abutilon theophrasti” value (Abutilon theophrasti [7]; application rate 320 g/ha)?
Its value is 90%.

And the “Stellaria media, herbicidal activity” value (Stellaria media [8]; application rate 320 g/ha)?
Its value is 90%.

What about the “Poa Annua, herbicidal activity” value (Poa annua [9]; application rate 1280 g/ha) of the same compound?
Its value is 90%.

And the “Matricaria inodora, herbicidal activity” value (Matricaria inodora [10]; application rate 1280 g/ha)?
The value was 90%.

For `CC(=O)OC1C(C)=CC(=O)N1c1cc(C(C)(C)C)no1` (centres unmarked) [I.3-290], which “Amaranthus retroflexus” value (Amaranthus retroflexus [11]) is on record?
The value was 90%.

What about the “Abutilon theophrasti” value (Abutilon theophrasti [3]; application rate 1280 g/ha) of the same compound?
Its value is 100%.

And the “Poa Annua, herbicidal activity” value (Poa annua [12]; application rate 1280 g/ha)?
The value was 100%.

What about the “Matricaria inodora, herbicidal activity” value (Matricaria inodora [13]; application rate 1280 g/ha) of the same compound?
Its value is 90%.

What about the “Setaria viridis, herbicidal activity” value (Setaria viridis [5]; application rate 1280 g/ha) of the same compound?
Its value is 90%.

And the “Amaranthus retroflexus” value (Amaranthus retroflexus [6]; application rate 1280 g/ha)?
Its value is 90%.

And the “Abutilon theophrasti” value (Abutilon theophrasti [7]; application rate 1280 g/ha)?
Its value is 100%.

And the “Stellaria media, herbicidal activity” value (Stellaria media [8]; application rate 1280 g/ha)?
The value was 100%.

And the “Poa Annua, herbicidal activity” value (Poa annua [9]; application rate 1280 g/ha)?
Its value is 90%.

And the “Matricaria inodora, herbicidal activity” value (Matricaria inodora [10]; application rate 1280 g/ha)?
The value was 100%.

What does the source list for `CC(=O)OC1C(C)=CC(=O)N1c1cc(C(F)(F)F)c(Cl)cn1` (centres unmarked) [I.3-451]?
Effect (inhibition of PS II activity) (photosystem II (PS II)): +++ (90%>inhibition≥70%); Amaranthus retroflexus, herbicidal activity (Amaranthus retroflexus [2]; application rate 1280 g/ha): 100%; Abutilon theophrasti, herbicidal activity (Abutilon theophrasti [3]; application rate 320 g/ha): 100%; Stellaria media, herbicidal activity (Stellaria media [4]; application rate 320 g/ha): 100%; Poa Annua, herbicidal activity (Poa annua [12]; application rate 320 g/ha): 100%; Matricaria inodora, herbicidal activity (Matricaria inodora [13]; application rate 320 g/ha): 90%; Setaria viridis, herbicidal activity (Setaria viridis [5]; application rate 1280 g/ha): 100%; Stellaria media, herbicidal activity (Stellaria media [8]; application rate 320 g/ha): 100%; Lolium rigidum, herbicidal activity (Lolium rigidum): 90%; Poa Annua, herbicidal activity (Poa annua [9]; application rate 320 g/ha): 90%

For `CCC(=O)OC1C(C)=CC(=O)N1c1cc(C(C)(C)C)no1` (centres unmarked) [I.5-290], which “Abutilon theophrasti” value (Abutilon theophrasti [3]; application rate 1280 g/ha) is on record?
Its value is 100%.

And the “Stellaria media, herbicidal activity” value (Stellaria media [4]; application rate 1280 g/ha)?
The value was 100%.

What about the “Matricaria inodora, herbicidal activity” value (Matricaria inodora [13]; application rate 1280 g/ha) of the same compound?
Its value is 100%.

What about the “Setaria viridis, herbicidal activity” value (Setaria viridis [5]; application rate 1280 g/ha) of the same compound?
The value was 90%.

What about the “Abutilon theophrasti” value (Abutilon theophrasti [7]; application rate 1280 g/ha) of the same compound?
The value was 100%.

And the “Stellaria media, herbicidal activity” value (Stellaria media [8]; application rate 320 g/ha)?
Its value is 100%.

What about the “Lolium rigidum, herbicidal activity” value (Lolium rigidum) of the same compound?
The value was 90%.

What about the “Poa Annua, herbicidal activity” value (Poa annua [9]; application rate 320 g/ha) of the same compound?
The value was 90%.

What about the “Matricaria inodora, herbicidal activity” value (Matricaria inodora [10]; application rate 320 g/ha) of the same compound?
The value was 100%.

For `CSc1nnc(C(C)(C)C)c(=O)n1N` [metribuzin, reference compound], which “Effect (inhibition of PS II activity)” value (photosystem II (PS II)) is on record?
The value was “++++ (inhibition≥90%)”.
